Consider one molecule from ChEMBL document CHEMBL4373699, “Structure-Guided Discovery of a Selective Mcl-1 Inhibitor with Cellular Activity” (J Med Chem, 2019).

Structures are written as SMILES. Some results are limits rather than exact numbers.

Series [1] can be described thus: in vivo. The note with it: mouse, plasma, iv, 1 mg/kg.
Description: Plasma clearance in mouse at 1 mpk, iv
The target of the next series is Cytochrome P450 2D6 (Homo sapiens, UniProt P10635).
Series [2] in a line: in vivo. The note with it: mouse, po, 3 mg/kg.
Description: Half-life in mouse at 3 mpk, po
A further series concerns the target Cytochrome P450 3A4 (Homo sapiens, UniProt P08684). The series is described as follows: Inhibition of human CYP3A4. The series is classed as ADME.
Series [3] is described as follows: in vivo. The settings on record: mouse, iv, 1 mg/kg.
Description: Volume of distribution in mouse at 1 mpk, iv
Series [4] is described as follows: in vivo. The settings on record: mouse, iv, 1 mg/kg. This is another data set of the same source.
Description: AUCt in mouse at 1 mpk, iv
Series [5] in a line: in vivo. The settings on record: mouse, po, 3 mg/kg. The source holds these as a separate data set.
Description: Oral bioavailability in mouse at 3 mpk
Series [6] can be described thus: in vivo. The settings on record: mouse, po, 3 mg/kg. This is another data set of the same source.
Description: Cmax in mouse at 3 mpk, po
The target in series [7] is Induced myeloid leukemia cell differentiation protein Mcl-1 (Homo sapiens, UniProt Q07820). The experiment in a line: biochemical.
Series [8] in a line: in vivo. The settings on record: mouse, po, 3 mg/kg. This is another data set of the same source.
Description: AUCt in mouse at 3 mpk, po
The target in another series is T1, Cytochrome P450 1A2 (Homo sapiens, UniProt P05177).
T1 sequence (P05177 whole entry): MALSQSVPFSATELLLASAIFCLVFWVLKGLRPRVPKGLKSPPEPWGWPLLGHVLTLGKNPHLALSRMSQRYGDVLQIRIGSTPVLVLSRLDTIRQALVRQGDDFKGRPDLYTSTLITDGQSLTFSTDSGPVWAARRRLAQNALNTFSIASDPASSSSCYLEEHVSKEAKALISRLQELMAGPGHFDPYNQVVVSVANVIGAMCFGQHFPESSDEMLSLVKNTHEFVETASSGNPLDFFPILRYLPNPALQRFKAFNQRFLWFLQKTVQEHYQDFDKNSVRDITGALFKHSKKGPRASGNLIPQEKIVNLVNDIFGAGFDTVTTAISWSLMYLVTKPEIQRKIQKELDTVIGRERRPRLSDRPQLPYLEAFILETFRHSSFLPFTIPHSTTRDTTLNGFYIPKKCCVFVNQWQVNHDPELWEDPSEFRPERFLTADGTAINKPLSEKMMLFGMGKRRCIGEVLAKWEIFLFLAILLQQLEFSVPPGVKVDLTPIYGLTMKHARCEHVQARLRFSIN

The next series has as its target Cytochrome P450 2C9 (Homo sapiens, UniProt P11712).
A short description of series [9]: in vivo. The settings on record: mouse, iv, 1 mg/kg. The source holds these as a separate data set.
Description: Half-life in mouse at 1 mpk, iv
For series [10] the following is noted: mouse, plasma.
Description: Fraction unbound in mouse plasma
For series [11] the following is noted: human, plasma.
Description: Fraction unbound in human plasma

Sequence of Cytochrome P450 2C9 (P11712 whole entry): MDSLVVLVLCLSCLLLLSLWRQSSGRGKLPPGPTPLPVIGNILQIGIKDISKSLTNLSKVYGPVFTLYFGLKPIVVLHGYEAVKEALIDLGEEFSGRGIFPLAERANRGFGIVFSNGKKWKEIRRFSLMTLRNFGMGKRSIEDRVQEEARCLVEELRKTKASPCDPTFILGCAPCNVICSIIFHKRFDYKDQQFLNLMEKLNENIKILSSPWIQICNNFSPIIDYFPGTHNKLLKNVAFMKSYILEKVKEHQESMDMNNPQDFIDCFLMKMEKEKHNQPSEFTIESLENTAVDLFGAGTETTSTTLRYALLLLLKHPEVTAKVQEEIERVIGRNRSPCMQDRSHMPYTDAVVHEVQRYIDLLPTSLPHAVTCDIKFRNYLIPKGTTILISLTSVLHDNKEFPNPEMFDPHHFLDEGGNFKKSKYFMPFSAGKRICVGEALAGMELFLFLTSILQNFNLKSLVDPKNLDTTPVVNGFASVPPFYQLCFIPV
Sequence of Cytochrome P450 2D6 (P10635 whole entry): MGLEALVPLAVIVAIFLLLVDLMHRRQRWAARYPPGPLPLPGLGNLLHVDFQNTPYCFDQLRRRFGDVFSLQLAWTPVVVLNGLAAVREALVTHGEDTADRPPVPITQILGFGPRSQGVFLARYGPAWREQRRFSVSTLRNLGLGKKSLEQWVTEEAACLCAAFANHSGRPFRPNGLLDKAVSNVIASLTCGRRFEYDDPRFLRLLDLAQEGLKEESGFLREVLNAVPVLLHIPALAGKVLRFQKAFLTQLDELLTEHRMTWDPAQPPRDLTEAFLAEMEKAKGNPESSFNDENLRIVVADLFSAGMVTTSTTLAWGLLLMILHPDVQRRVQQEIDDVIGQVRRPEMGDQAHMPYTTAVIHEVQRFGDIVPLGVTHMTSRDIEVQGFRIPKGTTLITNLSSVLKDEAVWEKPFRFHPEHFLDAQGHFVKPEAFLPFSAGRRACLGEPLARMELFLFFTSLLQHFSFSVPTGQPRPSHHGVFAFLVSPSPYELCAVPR
Sequence of Induced myeloid leukemia cell differentiation protein Mcl-1 (Q07820 whole entry): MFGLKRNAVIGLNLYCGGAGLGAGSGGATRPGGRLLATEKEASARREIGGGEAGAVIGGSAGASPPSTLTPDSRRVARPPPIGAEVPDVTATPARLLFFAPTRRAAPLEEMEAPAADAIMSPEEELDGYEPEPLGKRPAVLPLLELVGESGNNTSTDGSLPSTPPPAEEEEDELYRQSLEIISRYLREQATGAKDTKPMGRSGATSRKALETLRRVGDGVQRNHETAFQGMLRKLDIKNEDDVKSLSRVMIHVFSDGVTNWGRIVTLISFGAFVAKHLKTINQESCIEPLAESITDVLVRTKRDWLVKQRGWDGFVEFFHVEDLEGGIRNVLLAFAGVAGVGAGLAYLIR
Sequence of Cytochrome P450 3A4 (P08684 whole entry): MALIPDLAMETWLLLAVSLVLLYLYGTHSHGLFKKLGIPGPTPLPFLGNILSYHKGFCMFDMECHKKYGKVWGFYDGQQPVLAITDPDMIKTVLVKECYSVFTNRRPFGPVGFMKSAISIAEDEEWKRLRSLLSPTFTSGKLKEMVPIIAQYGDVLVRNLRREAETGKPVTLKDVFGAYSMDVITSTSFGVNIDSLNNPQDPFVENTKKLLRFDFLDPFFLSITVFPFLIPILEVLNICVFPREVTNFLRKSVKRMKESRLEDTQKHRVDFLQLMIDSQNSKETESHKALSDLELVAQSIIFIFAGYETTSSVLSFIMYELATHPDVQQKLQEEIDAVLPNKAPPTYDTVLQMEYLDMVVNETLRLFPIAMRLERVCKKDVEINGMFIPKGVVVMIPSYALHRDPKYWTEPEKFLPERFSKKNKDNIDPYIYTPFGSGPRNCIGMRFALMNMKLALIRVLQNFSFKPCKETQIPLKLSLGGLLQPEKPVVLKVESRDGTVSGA
Description for Cytochrome P450 1A2: Inhibition of human CYP1A2
Description for Cytochrome P450 2C9: Inhibition of human CYP2C9
Description for Cytochrome P450 2D6: Inhibition of human CYP2D6

For `CCc1sc2ncnc(N[C@H](Cc3ccccc3)C(=O)O)c2c1-c1ccc(OCCN2CCN(C)CC2)c(Cl)c1C` (stereo in doubt; 17a), in the series “in vivo [1]”, the clearance was found to be 33 mL/min/kg. For the same molecule, the IC50 is ≥ 20 µM on Cytochrome P450 2D6, 5.2 µM at Cytochrome P450 3A4, ≥ 20 µM against Cytochrome P450 1A2 and ≥ 20 µM on Cytochrome P450 2C9. The half-life is 228 min in the series “in vivo [2]” and 39 min in the series “in vivo [9]”. The distribution volume (Vd) in “in vivo [3]” came to 0.9 L/kg. The AUC(0-t) in the series “in vivo [4]” turned out to be 509 ng·h/mL; in the series “in vivo [8]”, 168 ng·h/mL. Also, the bioavailability in the series “in vivo [5]” is 16%. In “in vivo [6]”, this molecule had a Cmax of 64 ng/mL. In series [7], this molecule had a Ki of 220 nM. Moreover, the Fu in series [10] and in series [11] was 0.2% throughout.
